Source: ChEMBL document CHEMBL1781994, “Estrogenic activity of chemical constituents from Tephrosia candida” (J Nat Prod, 2011)

Key:
[1] = target: T1, Estrogen receptor (Homo sapiens) (UniProt P03372); test: Inhibition of fluorescence-labeled 17beta-estradiol binding to ERalpha receptor at 5 mM after 2 hrs by fluorometric analysis
T1 sequence (whole entry): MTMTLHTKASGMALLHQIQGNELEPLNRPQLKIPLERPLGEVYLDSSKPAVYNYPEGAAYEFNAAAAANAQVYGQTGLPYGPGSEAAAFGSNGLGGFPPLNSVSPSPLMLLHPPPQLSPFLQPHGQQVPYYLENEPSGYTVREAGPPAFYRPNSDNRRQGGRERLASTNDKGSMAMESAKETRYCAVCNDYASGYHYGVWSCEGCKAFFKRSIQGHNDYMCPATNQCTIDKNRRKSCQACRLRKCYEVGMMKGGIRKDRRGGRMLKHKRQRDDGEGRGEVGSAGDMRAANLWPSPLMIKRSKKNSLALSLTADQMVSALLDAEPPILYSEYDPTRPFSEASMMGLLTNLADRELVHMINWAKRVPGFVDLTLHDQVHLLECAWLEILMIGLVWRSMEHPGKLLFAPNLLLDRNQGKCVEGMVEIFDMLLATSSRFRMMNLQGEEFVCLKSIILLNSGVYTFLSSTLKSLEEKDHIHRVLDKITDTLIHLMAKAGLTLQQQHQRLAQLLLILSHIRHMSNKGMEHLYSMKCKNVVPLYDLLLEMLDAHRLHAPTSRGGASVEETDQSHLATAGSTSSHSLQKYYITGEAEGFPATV

Estrogen receptor = target: T2, Estrogen receptor (Homo sapiens, UniProt P03372)
T2 sequence (P03372 whole entry): T1 sequence (whole entry)
Description: Inhibition of fluorescence-labeled 17beta-estradiol binding to ERalpha receptor after 2 hrs by fluorometric analysis

In the case of `COc1ccc2c(c1)OC[C@]1(O)c3cc4c(cc3O[C@H]21)OCO4`, the inhibition [1] is reported as 36.2% and the IC50 (Estrogen receptor) is reported as greater than 5000 µM.

Compound `COc1cc(O)c(/C=C\C(C)(C)O)c2c1C(=O)CC(c1ccc(O)cc1)O2` (stereo not given) [TEPHROCANDIDIN B] has an inhibition [1] of 86.2% and an IC50 (Estrogen receptor) of 1000 µM.

Work on `C=C1CC[C@@H](O)[C@]2(C)CC[C@@](O)(C(C)C)[C@H](O)[C@@H]12` yielded an inhibition [1] of 67.3% and an IC50 (Estrogen receptor) of 2800 µM.

`COc1cc(O)c(/C=C\C(C)(C)O)c2c1C(=O)C[C@@H](c1ccccc1)O2` [TEPHROCANDIDIN A] gave an inhibition [1] of 70.1% and an IC50 (Estrogen receptor) of 3500 µM.

`COc1cc(O)c(/C=C\C(C)(C)O)c(O)c1C(=O)/C=C/c1ccc(O)cc1` [CANDIDACHALCONE] was tested, and the inhibition [1] was 95.1% and the IC50 (Estrogen receptor) was 80 µM.
